According to PubChem BioAssay (NCI):
Values after ≈ are worked out from the molar mass of the structure shown. Values joined by “and” are separate entries in the source; they are usually repeats but may differ in a detail not shown here. Identical values can stand only once.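 96-well plates; 48 h exposure; 5 concentrations. Endpoints by linear interpolation between flanking doses. Not reached: highest tested concentration assigned. GI50 marks 50% less growth. Definition used: TGI = concentration required for complete inhibition of growth.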 Active and inactive are the calls of the source. No stated cut-off is given here; in the data, active means GI50 below about 0.43 µM; inactive means the rest.

Key:
Experiment in all cases: NCI-60 cell line screen, 48 h
DU-145 prostate = system: DU-145 prostate
BT-549 breast = system: BT-549 breast
MDA-MB-435 = system: MDA-MB-435
MDA-MB-231 breast = system: MDA-MB-231 breast
MCF7 breast = system: MCF7 breast
KM20L2 colon = system: KM20L2 colon
DMS 114 small cell lung = system: DMS 114 small cell lung
DMS 273 small cell lung = system: DMS 273 small cell lung

SMILES	TGI (DU-145 prostate)	TGI (BT-549 breast)	TGI (MDA-MB-435)	TGI (MDA-MB-231 breast)	TGI (MCF7 breast)	GI50 (DU-145 prostate)	GI50 (BT-549 breast)	GI50 (MDA-MB-435)	GI50 (MDA-MB-231 breast)	GI50 (MCF7 breast)	outcome (KM20L2 colon)	GI50 (DMS 114 small cell lung)	TGI (DMS 114 small cell lung)	TGI (KM20L2 colon)	TGI (DMS 273 small cell lung)
Cc1cccc(Cl)c1NC(=O)/C=C/c1ccccc1	> 100 µM	> 100 µM	> 100 µM	> 100 µM	> 100 µM	–	–	–	–	–	–	–	–	–	–
C=C[C@H]1CCC/C=C/[C@@H]2C[C@H](O)C[C@H]2[C@H](O)/C=C/C(=O)O1	> 100 µM	> 100 µM	> 100 µM	0.0403 µM	0.0532 µM	0.0771 µM	0.05 µM	0.043 µM	0.0201 µM	0.021 µM	–	–	–	–	–
C=C1C(=O)[C@@]23CC1C(O)[C@@H](OC(C)=O)[C@@H]2C1(C)C(OC(C)=O)C[C@@H](OC(C)=O)C(C)(C)[C@@H]1C[C@H]3OC(C)=O (stereo partly specified)	> 10 µM and 30.6 µg/mL	3.04 µM and 3.31 µg/mL	9.51 µg/mL	7.49 µg/mL	6.7 µM and 19.1 µg/mL	16.9 µg/mL	1.87 µg/mL	2.88 µg/mL	2.38 µg/mL	6.33 µg/mL	inactive	2.08 µg/mL (≈ 3.89 µM)	4.6 µg/mL	–	–
COc1ccc2c(c1)OC1=C(C(=O)OC1)C2c1cc(OC)c(OC)c(OC)c1 (stereo unspecified)	> 42.4 µM	> 100 µM	0.358 µM	> 100 µM	> 100 µM	0.529 µM	1.29 µM	0.104 µM	1.3 µM	0.35 µM	–	–	–	–	–
C=C(C)CN(CC#N)CC(=C)C	> 100 µM	> 100 µM	> 100 µM	> 100 µM	> 100 µM	–	–	–	–	–	–	–	–	–	–
Cc1ccc(-c2nc(N)nc3c2nnn3Cc2cccc(CO[C@H]3CCOC3)n2)o1	> 100 µM	> 100 µM	> 100 µM	> 100 µM	> 100 µM	> 100 µM	82 µM	> 100 µM	> 100 µM	> 100 µM	–	–	–	–	–
COC(=O)c1c2c(c(C)[n+]([O-])c1C)C(=O)C=C(NCc1ccc(OC)cc1)C2=O	5.89 µM	15.8 µM	1.15 µM	5.41 µM	2.14 µM	2.32 µM	4.29 µM	0.598 µM	0.959 µM	0.72 µM	–	–	–	–	–
O=C1c2cc([N+](=O)[O-])ccc2-c2cccc(F)c21	> 100 µM	> 100 µM	> 100 µM	> 100 µM	> 100 µM	–	–	–	–	–	–	–	–	–	–
Cc1cc(I)cc(CN(C)CCN2CCCC2)c1O	> 100 µM	48.8 µM	42.4 µM	67.3 µM	53.7 µM	32.3 µM	18.7 µM	18.3 µM	22 µM	24.3 µM	–	–	–	–	–
COc1cc2c(Oc3ccc4[nH]c(C)cc4c3F)ccnc2cc1OCC1(N)CC1	> 100 µM	3.96 µM	1.21 µM	4.61 µM	24.6 µM	3.67 µM	1.3 µM	0.31 µM	1.8 µM	0.484 µM	–	–	–	–	–
O=C1NC(=S)NC(=O)C1=Cc1cccc2cc3ccccc3cc12	3.63 µM	3.33 µM	4.65 µM	3.69 µM	–	–	–	–	–	–	–	–	–	–	–
Cc1ccc(C(=O)C(Cl)C(Cl)c2ccc(C)cc2)cc1 (stereo unspecified)	15.3 µM	9.2 µM	10.8 µM	16.1 µM	18.6 µM	–	–	–	–	–	–	–	–	–	–
O=c1[nH]ccc2nc(N3CCC(O)CC3)nc(Nc3cccc(C(F)(F)F)c3)c12	19.3 µM	4.34 µM	3.55 µM	> 100 µM	12.7 µM	1.56 µM	1.6 µM	1.29 µM	12.2 µM	2.84 µM	–	–	–	–	–
Cc1ccc(NC(=O)CCC/C(CC(=O)c2ccc(Br)cc2)=N/NC(=O)CC#N)cc1	–	–	–	–	–	–	–	–	–	–	–	–	> 100 µM	> 100 µM	–
CCN=c1cc2sc3cc(NCC)c(C)cc3nc-2cc1C	4.16 µM	19.9 µM	4.33 µM	11.1 µM	0.937 µM	1.97 µM	2.87 µM	1.55 µM	0.334 µM	0.242 µM	–	–	–	–	–
O=CN1N=C(c2ccc(Cl)cc2)CC1c1cccc(Nc2ccnc3cc(Cl)ccc23)c1 (stereo unspecified)	> 100 µM	15.4 µM	17.2 µM	39.2 µM	16 µM	2.8 µM	1.78 µM	0.377 µM	2.74 µM	0.866 µM	–	–	–	–	–
O=C(Nc1ccc(F)cc1)C(=O)C(C1OC(=O)c2ccccc21)[N+](=O)[O-] (stereo unspecified)	–	–	–	–	–	–	–	–	–	–	–	–	> 100 µM	> 100 µM	–
C=CCN1C=CC(=O)[C@H](O[Si](C)(C)C(C)(C)C)[C@@H]1/C=C/c1ccccc1	30.1 µM	35 µM	30.6 µM	29.8 µM	21.9 µM	15.7 µM	16 µM	12.3 µM	14.6 µM	8.77 µM	–	–	–	–	–
COC(=O)C(=O)C(C#N)c1ccc(CC#N)cc1 (stereo unspecified)	–	–	–	–	–	–	–	–	–	–	–	–	–	> 100 µM	> 100 µM
COc1cccc(-c2nc3sccn3c2-c2ccnc(NCCNS(=O)(=O)c3ccccc3)c2)c1	> 100 µM	8.67 µM	> 100 µM	> 100 µM	> 100 µM	2.98 µM	2.29 µM	3.1 µM	3.81 µM	3.14 µM	–	–	–	–	–
NC(=N\N=C/c1cccc([N+](=O)[O-])c1)/C(N)=N\N=C/c1cccc([N+](=O)[O-])c1	> 100 µM	–	> 100 µM	> 100 µM	> 100 µM	> 100 µM	–	> 100 µM	> 100 µM	> 100 µM	–	–	–	–	–
O=P([O-])(O)OP(=O)([O-])O.[NH-][C@@H]1CCCC[C@H]1[NH-].[Pt+4]	> 100 µM	> 100 µM	> 100 µM and 27.4 µM	> 100 µM	> 100 µM	25.9 µM and 12.2 µM	> 100 µM and 30.5 µM	11.8 µM and 4.04 µM	> 100 µM	7.78 µM and 2.93 µM	–	–	–	–	–
CC1(C)CC(n2cnc(-c3ccc(F)cc3)c2-c2ccnc(N)n2)CC(C)(C)N1	> 25 µM	> 25 µM	> 25 µM	> 25 µM	> 19.6 µM	> 25 µM	> 25 µM	> 25 µM	> 22.7 µM	6.01 µM	–	–	–	–	–
c1cc(OCCN2CCCCC2)ccc1CNc1ccc2nc(CCC3CCCCC3)[nH]c2c1	11.5 µM	3.87 µM	3.09 µM	3.02 µM	4.26 µM	3.33 µM	1.71 µM	1.63 µM	1.58 µM	1.7 µM	–	–	–	–	–
